Measured values from patent publication US4943570A, “Benzimidazolesulfonamides and imidazopyridinesulfonamides, and their application as drugs” (Laboratorios Del Dr. Esteve, S.A., priority 1986, dated 1990).

System: gastric acid secretion
Experiment: Inhibition of gastric acid secretion in Shay rats (Shay's method, pylorus ligation)
Type: in vivo, Male Wistar rats
Conditions: Rattus norvegicus, administered intraduodenally; for ED50: 2 h; for inhibition in vivo at 40 mg/kg: intraduodenal, 2 h after pylorus ligation, read-out: Percentage inhibition of gastric acid secretion
From the text: Shay's method [H. Shay; S. A. Komarov; S. S. Fels; D. Merange: M. Grvenstein; H. Siplet: Gastroenterology, 5, 43 (1945)--F. E. Visscber; P. H. Seay: A. P. Taxelaar; W. Veldkamp; M. J. Vander Brook: J. Pharmac. Exp. Ther., 110, 188 (1954)--"Animal Experiments in Pharmacological Analysis", F. R. Domer: C. C. Thomas, published by Springfield, Ill., U.S.A., 1970, p. 140].
Male Wistar rats weighing 200 to 250 grams are used in this test; they are fasted from the day preceding the day of the test, with free access to water. Groups containing a minimum of 4 animals each are used.
The rats are anesthetized with ethyl ether, a laparotomy is performed on them and their pylorus is ligated; the abdominal incision is then sewn up. The administration of the products, with the vehicle for the control group, is effected intraduodenally (i.d.) before the abdominal incision is sewn up. The dose administered in the first test is 40 mg/kg and the 50% effective dose (ED50), administered intraduodenally, is also determined in a second test. The vehicle used is gum arabic at a concentration of 5% w/v in double-distilled water.
Two hours after ligation of the pylorus, the rats are sacrificed by prolonged anesthesia with ethyl ether and the volume of gastric juice is measured; the total acidity is determined by means of a pH meter equipped with an automatic burette. For each product and each dose tested, the percentage inhibition of gastric acid secretion is determined relative to the control group.

CCNS(=O)(=O)c1nc2cc(C(=O)c3ccccc3)ccc2[nH]1 [Example 1, 5-benzoyl-N-ethyl-1H-benzimidazole-2-sulfonamide]
ED50: 22.4 mg/kg | inhibition in vivo at 40 mg/kg: 78.7%

O=S(=O)(Nc1ccccn1)c1nc2ccccc2[nH]1 [Example 5, N-(2-Pyridyl)-1H-benzimidazole-2-sulfonamide]
ED50: 10.8 mg/kg | inhibition in vivo at 40 mg/kg: 96.4%

COc1ccc(CCNS(=O)(=O)c2nc3ccccc3[nH]2)cc1OC [Example 11, N-[2-(3,4-Dimethoxyphenylethyl)]-1H-benzimidazole-2-sulfonamide]
ED50: 42 mg/kg | inhibition in vivo at 40 mg/kg: 48.8%

CCCCNS(=O)(=O)c1nc2ccccc2[nH]1 [Example 14, N-Butyl-1H-benzimidazole-2-sulfonamide]
ED50: 30.6 mg/kg | inhibition in vivo at 40 mg/kg: 61.4%

CCNS(=O)(=O)c1nc2cc(C(F)(F)F)ccc2[nH]1 [Example 26, N-Ethyl-5-trifluoromethyl-1H-benzimidazole-2-sulfonamide]
ED50: 38.5 mg/kg | inhibition in vivo at 40 mg/kg: 53%

O=S(=O)(c1nc2ccccc2[nH]1)N1CCCCC1CO (centres unmarked) [Example 28, 2-(Sulfonyl-2-hydroxymethyl-1-piperidinyl)-1H-benzimidazole]
ED50: 38.5 mg/kg | inhibition in vivo at 40 mg/kg: 51.4%

COc1ccc(CNS(=O)(=O)c2nc3ccccc3[nH]2)cc1 [Example 29, N-(4-Methoxybenzyl)-1H-benzimidazole-2-sulfonamide]
ED50: 37.9 mg/kg | inhibition in vivo at 40 mg/kg: 54.2%

O=[N+]([O-])c1ccc2[nH]c(S(=O)(=O)NCCN3CCOCC3)nc2c1 [Example 36, N-[2-(4-Morpholinoethyl)]-5-nitro-1H-benzimidazole-2-sulfonamide]
ED50: 65.6 mg/kg | inhibition in vivo at 40 mg/kg: 40%

CCNS(=O)(=O)c1nc2ccccc2n1CC [Example 62, 1,N-diethyl-1H-benzimidazole-2-sulfonamide]
ED50: 31 mg/kg | inhibition in vivo at 40 mg/kg: 52.4%

CCN(CC)S(=O)(=O)c1nc2ccccc2n1CC [Example 63, 1,N,N-Triethyl-1H-benzimidazole-2-sulfonamide]
ED50: 49.2 mg/kg | inhibition in vivo at 40 mg/kg: 52%

CCN(CC)CCCC(C)NS(=O)(=O)c1nc2cc(Cl)ccc2n1CC (centres unmarked) [Example 68, 5-Chloro-N-(4-diethylamino-1-methylbutyl)-1-ethyl-1H-benzimidazole-2-sulfonamide]
ED50: 39.7 mg/kg | inhibition in vivo at 40 mg/kg: 53.8%

CCN(CC)CCCC(C)NS(=O)(=O)c1nc2ccc(Cl)cc2n1CC (centres unmarked) [Example 69, 6-Chloro-N-(4-diethylamino-1-methylbutyl)-1-ethyl-1H-benzimidazole-2-sulfonamide]
ED50: 39.2 mg/kg | inhibition in vivo at 40 mg/kg: 54.3%

CCN(CC)CCCC(C)N(CC)S(=O)(=O)c1nc2cc(Cl)ccc2n1CC (centres unmarked) [Example 73, 5-Chloro-1,N-diethyl-N-(4-diethylamino-1-methylbutyl)-1H-benzimidazole-2-sulfonamide]
ED50: 18.5 mg/kg | inhibition in vivo at 40 mg/kg: 77.5%

CCN(CC)CCCC(C)N(CC)S(=O)(=O)c1nc2ccc(Cl)cc2n1CC (centres unmarked) [Example 74, 6-Chloro-1,N-diethyl-N-(4-diethylamino-1-methylbutyl)-1H-benzimidazole-2-sulfonamide]
ED50: 17.9 mg/kg | inhibition in vivo at 40 mg/kg: 76.4%

CCN1CCCn2c(nc3ccccc32)S1(=O)=O [Example 90, 3,4,5-Trihydro-2H-2-ethyl-[1,2,6]-thiadiazepino[6,7-a]-benzimidazole 1,1-dioxide]
ED50: 64 mg/kg | inhibition in vivo at 40 mg/kg: 51.4%

CCCCN1CCn2c(nc3ccccc32)S1(=O)=O [Example 100, 2H-2-Butyl-3,4-Dihydro-[1,2,5]-thiadiazino[5,6-a]-benzimidazole 1,1-dioxide]
ED50: 37.6 mg/kg | inhibition in vivo at 40 mg/kg: 51.8%

CCN(CC)CCCC(C)N1CCn2c(nc3cc(Cl)ccc32)S1(=O)=O (centres unmarked) [Example 102, 8-Chloro-3,4-dihydro-2H-2-(4-diethylamino-1-methylbutyl)-[1,2,5]-thiadiazino[5,6-a]benzimidazole 1,1-dioxide]
ED50: 14.1 mg/kg | inhibition in vivo at 40 mg/kg: 71.4%

CCN(CC)CCCC(C)N1CCn2c(nc3ccc(Cl)cc32)S1(=O)=O (centres unmarked) [Example 103, 7-chloro-3,4-dihydro-2H-2-(4-diethylamino-1-methylbutyl)-[1,2,5]-thiadiazino[5,6-a]benzimidazole 1,1-dioxide]
ED50: 15 mg/kg | inhibition in vivo at 40 mg/kg: 72.3%

CCN1CCn2c(nc3cc(C(=O)c4ccccc4)ccc32)S1(=O)=O [Example 115, 8-Benzoyl-3,4-dihydro-2H-2-ethyl-[1,2,5]-thiadiazino-[5,6-a]benzimidazole 1,1-dioxide]
ED50: 38.9 mg/kg | inhibition in vivo at 40 mg/kg: 51.1%

CCN1CCn2c(nc3ccc(C(=O)c4ccccc4)cc32)S1(=O)=O [Example 116, 7-Benzoyl-3,4-dihydro-2H-2-ethyl-[1,2,5]-thiadiazino-[5,6-a]benzimidazole 1,1-dioxide]
ED50: 39.4 mg/kg | inhibition in vivo at 40 mg/kg: 50.3%

O=[N+]([O-])c1ccc2c(c1)nc1n2CCN(CCCN2CCOCC2)S1(=O)=O [Example 141, 3,4-Dihydro-2H-2-[3-(4-morpholinopropyl)]-8-nitro-[1,2,5]-thiadiazino[5,6-a]benzimidazole 1,1-dioxide]
ED50: 16.3 mg/kg | inhibition in vivo at 40 mg/kg: 80.9%

CCN(CC)CCCC(C)N1CCn2c(nc3cc([N+](=O)[O-])ccc32)S1(=O)=O (centres unmarked) [Example 143, 2H-2-(4-Diethylamino-1-methylbutyl)-3,4-dihydro-8-nitro-[1,2,5]-thiadiazino[5,6-a]benzimidazole 1,1-dioxide]
ED50: 20.5 mg/kg | inhibition in vivo at 40 mg/kg: 99.3%

O=[N+]([O-])c1ccc2c(c1)nc1n2CCNS1(=O)=O [Example 145, 3,4-Dihydro-2H-8-nitro-[1,2,5]-thiadiazino[5,6-a]-benzimidazole 1,1-dioxide]
ED50: 19.8 mg/kg | inhibition in vivo at 40 mg/kg: 68.7%

O=[N+]([O-])c1ccc2nc3n(c2c1)CCNS3(=O)=O [Example 146, 3,4-Dihydro-2H-7-nitro-[1,2,5]-thiadiazino[5,6-a]-benzimidazole 1,1-dioxide]
ED50: 20.3 mg/kg | inhibition in vivo at 40 mg/kg: 67.5%

O=[N+]([O-])c1ccc2c(c1)nc1n2CCN(C23CC4CC(CC(C4)C2)C3)S1(=O)=O [Example 147, 2H-2-(1-Adamantyl)-3,4-dihydro-8-nitro-[1,2,5]-thiadiazino[5,6-a]benzimidazole 1,1-dioxide]
ED50: 44 mg/kg | inhibition in vivo at 40 mg/kg: 46.5%

O=[N+]([O-])c1ccc2nc3n(c2c1)CCN(C12CC4CC(CC(C4)C1)C2)S3(=O)=O [Example 148, 2H-2-(1-Adamantyl)-3,4-dihydro-7-nitro-[1,2,5]-thiadiazino[5,6-a]benzimidazole 1,1-dioxide]
ED50: 46 mg/kg | inhibition in vivo at 40 mg/kg: 45.3%

CCN1CCn2c(nc3ccc(N)cc32)S1(=O)=O [Example 149, 7-amino-3,4-dihydro-2H-2-ethyl-[1,2,5]-thiadiazino[5,6-a]benzimidazole 1,1 dioxide]
ED50: 32.6 mg/kg | inhibition in vivo at 40 mg/kg: 64%

CCN1CCn2c(nc3ccc(NC(C)=O)cc32)S1(=O)=O [Example 150, 7-acetylamino-3,4-dihydro-2H-2-ethyl-[1,2,5]-thiadiazino[5,6-a]benzimidazole 1,1-dioxide]
ED50: 41.6 mg/kg | inhibition in vivo at 40 mg/kg: 53.4%
